Key:
Test in all cases: biochemical
Design in all cases: KINOMEscan active-site competition binding panel (468 kinase assays), per cent of control at 1000 nM
Settings in all cases: KINOMEscan per cent of control (binding competition); read-out: Percent Control
AKT1 = AKT1 (Homo sapiens, UniProt P31749)
Description: (§1) Figure S7 / Percent Control

ALK = ALK (Homo sapiens, UniProt Q9UM73)
Description: as §1

ANKK1 = ANKK1 (Homo sapiens, UniProt Q8NFD2)
Description: as §1

BMPR1B = BMPR1B (Homo sapiens, UniProt O00238)
Description: as §1

CDK2 = CDK2 (Homo sapiens, UniProt P24941)
Description: as §1

CSF1R = CSF1R (Homo sapiens, UniProt P07333)
CSF1R, sequence (P07333 whole entry): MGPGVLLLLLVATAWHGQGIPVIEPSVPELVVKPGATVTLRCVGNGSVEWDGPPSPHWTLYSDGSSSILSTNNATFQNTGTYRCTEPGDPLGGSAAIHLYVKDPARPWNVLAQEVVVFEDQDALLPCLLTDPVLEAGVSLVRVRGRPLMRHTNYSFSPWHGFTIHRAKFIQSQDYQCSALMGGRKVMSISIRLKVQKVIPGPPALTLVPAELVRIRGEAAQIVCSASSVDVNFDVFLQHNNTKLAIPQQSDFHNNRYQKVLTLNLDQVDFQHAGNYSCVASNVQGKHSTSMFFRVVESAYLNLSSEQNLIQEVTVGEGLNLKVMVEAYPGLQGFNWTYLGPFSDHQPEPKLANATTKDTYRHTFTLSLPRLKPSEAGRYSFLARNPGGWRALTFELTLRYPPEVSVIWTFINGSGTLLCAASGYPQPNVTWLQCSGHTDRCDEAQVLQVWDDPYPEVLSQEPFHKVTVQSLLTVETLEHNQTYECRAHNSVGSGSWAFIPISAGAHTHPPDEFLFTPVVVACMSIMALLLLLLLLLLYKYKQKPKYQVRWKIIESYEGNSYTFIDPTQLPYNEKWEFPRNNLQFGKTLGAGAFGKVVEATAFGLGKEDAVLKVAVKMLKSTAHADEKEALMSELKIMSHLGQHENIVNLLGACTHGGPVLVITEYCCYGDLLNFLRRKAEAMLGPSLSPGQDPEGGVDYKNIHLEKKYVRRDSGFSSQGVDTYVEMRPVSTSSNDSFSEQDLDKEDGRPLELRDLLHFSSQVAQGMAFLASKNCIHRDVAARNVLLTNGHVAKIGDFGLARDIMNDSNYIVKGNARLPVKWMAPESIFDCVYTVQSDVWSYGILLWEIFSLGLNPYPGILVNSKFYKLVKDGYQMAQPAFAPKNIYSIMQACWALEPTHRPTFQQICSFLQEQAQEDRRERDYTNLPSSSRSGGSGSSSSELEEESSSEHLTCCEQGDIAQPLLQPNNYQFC
Description: as §1

CSNK1D = CSNK1D (Homo sapiens, UniProt P48730)
Description: as §1

DYRK1B = DYRK1B (Homo sapiens, UniProt Q9Y463)
DYRK1B, sequence (Q9Y463 whole entry): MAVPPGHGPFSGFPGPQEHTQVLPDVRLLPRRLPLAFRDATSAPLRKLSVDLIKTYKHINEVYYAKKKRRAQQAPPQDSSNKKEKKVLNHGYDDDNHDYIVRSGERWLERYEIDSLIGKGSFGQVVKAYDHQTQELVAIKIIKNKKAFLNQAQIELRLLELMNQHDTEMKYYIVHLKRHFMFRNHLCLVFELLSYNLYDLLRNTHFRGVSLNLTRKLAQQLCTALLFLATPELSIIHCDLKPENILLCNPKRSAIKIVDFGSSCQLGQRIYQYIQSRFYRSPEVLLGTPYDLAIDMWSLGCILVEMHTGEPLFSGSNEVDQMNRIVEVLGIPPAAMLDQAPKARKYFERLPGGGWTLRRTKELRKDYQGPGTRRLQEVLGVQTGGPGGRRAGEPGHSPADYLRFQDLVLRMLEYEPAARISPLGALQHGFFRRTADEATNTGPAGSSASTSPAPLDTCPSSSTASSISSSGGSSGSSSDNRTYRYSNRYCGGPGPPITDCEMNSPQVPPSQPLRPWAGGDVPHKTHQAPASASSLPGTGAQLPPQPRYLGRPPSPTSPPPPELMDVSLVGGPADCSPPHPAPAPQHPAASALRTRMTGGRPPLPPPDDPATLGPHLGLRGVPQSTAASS
Description: as §1

EGFR(T790M) = EGFR(T790M) (Homo sapiens, UniProt P00533, T790M)
Description: as §1

EPHA4 = EPHA4 (Homo sapiens, UniProt P54764)
EPHA4, sequence (P54764 whole entry): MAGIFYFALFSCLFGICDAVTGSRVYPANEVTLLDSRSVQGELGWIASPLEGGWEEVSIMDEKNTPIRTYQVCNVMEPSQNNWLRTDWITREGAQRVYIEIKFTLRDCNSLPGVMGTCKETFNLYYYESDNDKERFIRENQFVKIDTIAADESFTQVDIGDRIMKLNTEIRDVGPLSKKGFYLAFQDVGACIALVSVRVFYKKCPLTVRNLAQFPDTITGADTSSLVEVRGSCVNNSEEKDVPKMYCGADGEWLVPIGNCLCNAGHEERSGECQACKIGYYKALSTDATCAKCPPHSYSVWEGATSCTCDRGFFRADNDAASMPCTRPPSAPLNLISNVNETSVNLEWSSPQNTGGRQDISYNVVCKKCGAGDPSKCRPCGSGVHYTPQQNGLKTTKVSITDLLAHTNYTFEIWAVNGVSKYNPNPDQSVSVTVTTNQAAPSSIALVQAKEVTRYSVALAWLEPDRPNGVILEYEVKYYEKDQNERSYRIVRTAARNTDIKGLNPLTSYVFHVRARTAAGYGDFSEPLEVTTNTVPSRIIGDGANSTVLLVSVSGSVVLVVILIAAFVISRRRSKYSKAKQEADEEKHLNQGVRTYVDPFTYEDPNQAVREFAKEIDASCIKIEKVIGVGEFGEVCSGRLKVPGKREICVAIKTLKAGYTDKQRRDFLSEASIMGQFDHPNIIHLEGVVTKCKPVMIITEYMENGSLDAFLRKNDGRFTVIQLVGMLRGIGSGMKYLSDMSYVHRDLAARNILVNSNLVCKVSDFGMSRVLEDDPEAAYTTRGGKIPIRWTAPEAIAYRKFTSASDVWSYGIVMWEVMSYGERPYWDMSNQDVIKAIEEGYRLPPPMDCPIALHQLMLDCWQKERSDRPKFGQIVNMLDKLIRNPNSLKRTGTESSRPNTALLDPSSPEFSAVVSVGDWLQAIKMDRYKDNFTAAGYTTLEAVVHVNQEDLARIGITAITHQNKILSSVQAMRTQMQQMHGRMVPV
Description: as §1

GSK3B = GSK3B (Homo sapiens, UniProt P49841)
Description: as §1

LRRK2 = LRRK2 (Homo sapiens, UniProt Q5S007)
Description: as §1

MEK1 = biological target: T1, MEK1 (Homo sapiens, UniProt Q02750)
T1 construct: gene MAP2K1
T1 sequence (Q02750 whole entry): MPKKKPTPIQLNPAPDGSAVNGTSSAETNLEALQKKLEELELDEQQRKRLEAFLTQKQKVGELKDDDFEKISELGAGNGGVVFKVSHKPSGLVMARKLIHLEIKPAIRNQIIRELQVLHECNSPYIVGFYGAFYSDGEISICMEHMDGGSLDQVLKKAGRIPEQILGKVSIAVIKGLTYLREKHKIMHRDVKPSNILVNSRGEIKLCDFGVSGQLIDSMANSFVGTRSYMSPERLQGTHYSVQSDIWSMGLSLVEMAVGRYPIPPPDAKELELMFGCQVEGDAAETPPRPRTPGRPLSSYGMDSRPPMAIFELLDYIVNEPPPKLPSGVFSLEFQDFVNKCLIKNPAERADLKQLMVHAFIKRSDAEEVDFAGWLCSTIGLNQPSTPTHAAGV
Description: as §1

MKK7 = biological target: T2, MKK7 (Homo sapiens, UniProt O14733)
T2 construct: gene MAP2K7
Description: as §1

MLK3 = biological target: T3, MLK3 (Homo sapiens, UniProt Q16584)
T3 construct: gene MAP3K11
Description: as §1

MST1R = MST1R (Homo sapiens, UniProt Q04912)
Description: as §1

NEK5 = NEK5 (Homo sapiens, UniProt Q6P3R8)
NEK5, sequence (Q6P3R8 whole entry): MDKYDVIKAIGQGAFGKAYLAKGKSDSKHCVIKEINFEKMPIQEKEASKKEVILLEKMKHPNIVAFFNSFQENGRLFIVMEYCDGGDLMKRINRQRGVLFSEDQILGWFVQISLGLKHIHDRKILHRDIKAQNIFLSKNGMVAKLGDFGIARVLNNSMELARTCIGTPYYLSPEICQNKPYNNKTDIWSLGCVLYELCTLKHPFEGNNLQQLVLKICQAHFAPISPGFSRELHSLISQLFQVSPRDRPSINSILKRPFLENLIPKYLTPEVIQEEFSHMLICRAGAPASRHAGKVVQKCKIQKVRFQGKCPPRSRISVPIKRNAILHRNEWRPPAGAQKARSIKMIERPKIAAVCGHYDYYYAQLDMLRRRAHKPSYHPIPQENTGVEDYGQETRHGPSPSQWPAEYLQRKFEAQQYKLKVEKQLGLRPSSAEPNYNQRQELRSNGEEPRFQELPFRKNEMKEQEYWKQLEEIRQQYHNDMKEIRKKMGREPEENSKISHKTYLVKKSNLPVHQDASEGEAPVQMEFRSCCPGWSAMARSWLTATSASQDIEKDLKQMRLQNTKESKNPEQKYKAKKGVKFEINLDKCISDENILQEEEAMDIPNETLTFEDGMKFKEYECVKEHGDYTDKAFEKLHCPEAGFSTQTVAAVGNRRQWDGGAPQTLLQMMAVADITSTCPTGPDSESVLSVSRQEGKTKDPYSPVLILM
Description: as §1

PIK3CA(E545A) = PIK3CA(E545A) (Homo sapiens, UniProt P42336, E545A)
Description: as §1

PIK3CA(Q546K) = PIK3CA(Q546K) (Homo sapiens, UniProt P42336, Q546K)
Description: as §1

RIOK3 = RIOK3 (Homo sapiens, UniProt O14730)
Description: as §1

[1] = biological target: T4, RPS6KA4(Kin.Dom.1-N-terminal) (Homo sapiens, UniProt O75676)
T4 construct: Kin.Dom.1-N-terminal
Description: as §1

STK36 = STK36 (Homo sapiens, UniProt Q9NRP7)
STK36, sequence (Q9NRP7 whole entry): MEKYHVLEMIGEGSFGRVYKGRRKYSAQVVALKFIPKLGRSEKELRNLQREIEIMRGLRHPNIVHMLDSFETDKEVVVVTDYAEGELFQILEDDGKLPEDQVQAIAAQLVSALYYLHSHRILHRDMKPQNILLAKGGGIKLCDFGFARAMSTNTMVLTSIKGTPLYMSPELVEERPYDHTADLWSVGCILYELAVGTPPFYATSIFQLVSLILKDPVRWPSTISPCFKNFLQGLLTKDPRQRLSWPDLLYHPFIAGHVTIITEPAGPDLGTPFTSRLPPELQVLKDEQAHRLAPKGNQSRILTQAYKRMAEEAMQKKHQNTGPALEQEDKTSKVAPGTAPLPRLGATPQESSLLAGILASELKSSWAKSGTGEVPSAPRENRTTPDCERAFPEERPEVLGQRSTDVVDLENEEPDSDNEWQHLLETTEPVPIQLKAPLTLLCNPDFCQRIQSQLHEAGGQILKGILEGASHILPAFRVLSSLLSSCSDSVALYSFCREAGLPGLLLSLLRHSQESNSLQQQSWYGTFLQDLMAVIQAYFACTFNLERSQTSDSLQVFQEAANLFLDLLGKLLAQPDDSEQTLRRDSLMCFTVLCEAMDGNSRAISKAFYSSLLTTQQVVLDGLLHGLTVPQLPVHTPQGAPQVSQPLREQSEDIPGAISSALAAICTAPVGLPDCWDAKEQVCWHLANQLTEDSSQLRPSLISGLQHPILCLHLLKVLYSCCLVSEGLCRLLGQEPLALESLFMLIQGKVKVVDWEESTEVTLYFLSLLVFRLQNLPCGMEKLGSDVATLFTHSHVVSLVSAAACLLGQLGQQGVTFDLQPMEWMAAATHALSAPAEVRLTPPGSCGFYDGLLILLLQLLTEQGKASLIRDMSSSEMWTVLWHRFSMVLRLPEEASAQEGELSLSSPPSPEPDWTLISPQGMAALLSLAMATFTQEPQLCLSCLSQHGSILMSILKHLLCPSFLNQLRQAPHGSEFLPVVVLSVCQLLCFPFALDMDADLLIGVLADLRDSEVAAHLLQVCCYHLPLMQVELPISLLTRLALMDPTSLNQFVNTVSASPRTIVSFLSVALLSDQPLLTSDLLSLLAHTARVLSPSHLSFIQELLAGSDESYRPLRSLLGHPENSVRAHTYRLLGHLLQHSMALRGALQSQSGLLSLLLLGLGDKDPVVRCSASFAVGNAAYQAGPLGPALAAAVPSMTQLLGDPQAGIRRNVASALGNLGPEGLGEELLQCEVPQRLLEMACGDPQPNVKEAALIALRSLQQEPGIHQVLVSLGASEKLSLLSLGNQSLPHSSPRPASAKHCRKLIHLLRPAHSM
Description: as §1

TESK1 = TESK1 (Homo sapiens, UniProt Q15569)
Description: as §1

TRKC = biological target: T5, TRKC (Homo sapiens, UniProt Q16288)
T5 construct: gene NTRK3
Description: as §1

ULK1 = ULK1 (Homo sapiens, UniProt O75385)
Description: as §1

With `Cn1c(=O)[nH]c2ccc(-c3cccc(C(=O)NC4CCn5ccnc5C4)c3)cc21` (stereo not shown) [Z36-MP5] the remaining binding at 1 µM (AKT1) was 95%, the remaining binding at 1 µM (ALK) was 51% and the remaining binding at 1 µM (ANKK1) was 60%. The remaining binding at 1 µM (BMPR1B) was 55%, the remaining binding at 1 µM (CDK2) was 91% and the remaining binding at 1 µM (CSF1R) was 91%. It also gave a remaining binding at 1 µM (CSNK1D) of 98%, a remaining binding at 1 µM (DYRK1B) of 86% and a remaining binding at 1 µM (EGFR(T790M)) of 44%. It also gave a remaining binding at 1 µM (EPHA4) of 58%, a remaining binding at 1 µM (GSK3B) of 81% and a remaining binding at 1 µM (LRRK2) of 71%. For the same compound, the remaining binding at 1 µM (MEK1) was 63%, the remaining binding at 1 µM (MKK7) was 72% and the remaining binding at 1 µM (MLK3) was 93%. The remaining binding at 1 µM (MST1R) was 64%, the remaining binding at 1 µM (NEK5) was 90% and the remaining binding at 1 µM (PIK3CA(E545A)) was 89%. The remaining binding at 1 µM (PIK3CA(Q546K)) was 54%, the remaining binding at 1 µM (RIOK3) was 100% and the remaining binding at 1 µM [1] was 90%. It also gave a remaining binding at 1 µM (STK36) of 77%, a remaining binding at 1 µM (TESK1) of 100% and a remaining binding at 1 µM (TRKC) of 53%. The remaining binding at 1 µM (ULK1) was 51%.
